Measurements published in ChEMBL document CHEMBL1154198, “Chemical genetics of Plasmodium falciparum” (Nature, 2010).

Legend:
Plasmodium falciparum [1] = test: ST_JUDE: Plasmodium falciparum 3D7 EC50 (uM) as measured by SYBR green dye; format: functional, organism-based
Plasmodium falciparum [2] = test: ST_JUDE: Plasmodium falciparum K1 EC50 (uM) as measured by SYBR green dye; format: functional, organism-based

SMILES	EC50 (Plasmodium falciparum [1]) [µM]	EC50 (Plasmodium falciparum [2]) [µM]
Cc1ccc(Nc2nc(N/N=C/c3ccc(/C=N/Nc4nc(Nc5ccc(C)cc5)nc(N5CCOCC5)n4)cc3)nc(N3CCOCC3)n2)cc1	1.58	1.43
COc1ccc(CC(=O)N2CC(=O)Nc3ccc(Cl)cc3C2c2ccc(F)cc2)cc1 (configuration not stated)	> 15	> 15
COC(=O)C1=CNC=C(C(=O)OC)C1c1ccc(F)c(F)c1	8.04	> 15
COc1ccc(NC(=O)C2c3ccccc3C(=O)N(C)C2c2cccs2)cc1Cl (configuration not stated)	1.07	1.35
COc1ccc(CN2CCN(Cc3cc(Br)ccc3O)CC2)cc1OC	4.91	6.31
CCOc1ccc(C(=O)Nc2cc(C)nn2-c2nc(C)c(CC)c(O)n2)cc1OCC	> 15	> 15
O=C(Nc1c2c(nn1-c1ccc([N+](=O)[O-])cc1)CSC2)c1ccc(C(=O)c2ccccc2)cc1	> 15	4.08
COc1cccc(C(=O)NC(c2ccc([N+](=O)[O-])cc2)c2c(O)ccc3ccccc23)c1 (configuration not stated)	> 15	5.25
Cc1cc(C)c[n+](C(C)C(=O)c2ccc(-c3ccccc3)cc2)c1 (configuration not stated)	2.86	2.53
CCCCN1COc2c(c3c(C(C)=O)c(C)oc3c3ccccc23)C1	> 15	4.31
COc1ccc2sc(N(Cc3cccnc3)C(=O)c3ccc(Cl)cc3)nc2c1	> 15	> 15
CC(=O)N(C)C1=C(N2CCOCC2)C(=O)c2ccccc2C1=O	2.72	4.78
COc1cc(CNc2cc(Cl)ccc2C)cc(I)c1OC	> 15	3.17
CSc1cccc(NC(=O)Cn2c(=O)sc3ccccc32)c1	> 15	> 15
O=C(COc1cccc(Br)c1)N/N=C/c1ccc(Br)cc1	> 15	> 15
CCc1ccc2nc(N(Cc3cccnc3)C(C)=O)sc2c1	> 15	> 15
CC(C)(C)CC(C)(C)NCC(O)COc1ccc2c(c1)CCC2 (configuration not stated)	4.42	1.22
Cc1ccc2c(c1)c(-c1ccccc1)c(-c1ccccc1)n2CC(O)CNCCc1ccccc1 (configuration not stated)	1.41	0.602
CCN(CC)c1cc(C)c2cc(NC(=O)c3ccc(OC)c(OC)c3)ccc2n1	2.29	> 15
C=CCN1C(=S)NC2c3cc(Br)ccc3OC1(C)C2C (configuration not stated)	2.58	3.1
CN1CCN(CCCNC(=O)c2ccc3c(c2)sc2nc(-c4ccccc4)cn23)CC1	4.06	9.15
COc1ccccc1C(=O)Nc1nnc(Cc2nc3ccccc3[nH]2)s1	> 15	> 15

SMILES	EC50 (Plasmodium falciparum [1]) [µM]	EC50 (Plasmodium falciparum [2]) [µM]
N#Cc1ccc(C(=O)N(Cc2cccnc2)c2nc3c(F)cccc3s2)cc1	> 15	> 15
C=CCn1c(=N)n(CC(O)COc2cccc(C)c2)c2ccccc21 (configuration not stated)	7.13	> 15
COc1ccc(CCNC(=S)Nc2cc(Cl)ccc2Cl)cc1OC	3.43	2.94
Cc1ccc2[nH]c(-c3cccc(-c4nc5cc(C)ccc5[nH]4)n3)nc2c1	3.23	7.6
O=C1C(Sc2nc[nH]n2)=C/C(=N/S(=O)(=O)c2ccc(F)cc2)c2ccccc21	> 15	11.9
CC(C)COc1ccc(COC2C(C3COC(C)(C)O3)OC3OC(C)(C)OC32)cc1 (configuration not stated)	7.79	> 15
COc1cc(SC)ccc1C(=O)N1CCCC(C)C1 (configuration not stated)	9.81	> 15
Cc1cccc(NC(=O)CSc2nc3c4ccccc4nc-3c(O)n2-c2ccc([N+](=O)[O-])cc2)c1	> 15	4.68
CCN(CC)c1ccc(/C=C/C(=O)NCCN2CCC(N(C)C3CCCCC3C)CC2)cc1 (configuration not stated)	2.29	> 15
O=C(Nc1cccc(C(F)(F)F)c1)c1cc2ccccc2oc1=O	> 15	> 15
O=C(Nc1cccc(Cl)c1)c1cc2ccccc2cc1O	> 15	0.568
C[n+]1ccccc1-c1nc2ccccc2s1	> 15	5.81
Cc1nc2nc(NCc3cccc(Br)c3)nn2c(O)c1C	> 15	> 15
CCCc1cc(O)nc(-n2nc(C)cc2NC(=O)c2cccc(C)c2)n1	2.22	> 15
CCCc1cc(O)nc(-n2nc(C)cc2NC(=O)c2cc(C)cc(C)c2)n1	> 15	> 15
CC/C(=C\c1sc2ccc(OC)cc2[n+]1CC)SC	1.33	> 15
CC(C)(C)c1ccc(C(=O)Nc2cccc(NC(=O)c3cccs3)c2)cc1	> 15	> 15
CCc1ccc(OCC2c3cc(OC)c(OC)cc3CCN2C(=O)COc2ccccc2)cc1 (configuration not stated)	> 15	> 15
CC(NC(=S)Nc1cccc([N+](=O)[O-])c1)c1ccc(C(C)(C)C)cc1 (configuration not stated)	> 15	6.22
Oc1ccccc1/C=N\c1ccc(-c2nc3cc(-c4ccc5[nH]c(-c6ccc(/N=C\c7ccccc7O)cc6)nc5c4)ccc3[nH]2)cc1	0.207	0.151
Cc1cc(Cl)c(S(=O)(=O)N(C)C)cc1OCC(=O)Nc1ccccc1	> 15	> 15
O=C(Nc1ccccc1-c1ccccc1)C(Cl)(Cl)Cl	1.56	1.15

SMILES	EC50 (Plasmodium falciparum [1]) [µM]	EC50 (Plasmodium falciparum [2]) [µM]
O=C(NNc1nc2ccc(F)cc2s1)c1ccc(F)cc1	> 15	7.1
CCN(CC)CCNc1nc(Nc2ccc(F)cc2)c2cnn(-c3ccccc3)c2n1	1.34	3.02
CC(=O)c1ccc(Oc2c(F)c(F)nc(F)c2F)cc1	> 15	> 15
CC[n+]1ccccc1/C=C1\Sc2ccc(C)cc2N1C	0.572	0.453
CC(=O)Nc1ccc(S(=O)(=O)Nc2ccc(Nc3nc(C)cc(N(C)C)n3)cc2)cc1	1.95	6.27
CCOC(=O)C1=C(Nc2ccc(Cl)cc2)S/C(=C\c2cccc(OC)c2O)C1=O	> 15	4
O=C(c1cccc(Cl)c1)N(Cc1cccnc1)c1nc2c(F)cccc2s1	> 15	6.68
CCOc1cc(C2C3=C(O)CC(c4ccc(OC)cc4)CC3=NC(C)=C2C(=O)OC)ccc1O (configuration not stated)	> 15	5.36
Cc1nc2sc(C(c3ccc(Cl)cc3)N3CCC4(CC3)OCCO4)c(O)n2n1 (configuration not stated)	> 15	> 15
O=C(Nc1ccc(Cl)cc1C(=O)Nc1cccc(C(F)(F)F)c1)c1ccco1	> 15	> 15
CC(C)CC(=O)NC(c1ccc(Cl)cc1Cl)c1ccc2cccnc2c1O (configuration not stated)	> 15	> 15
COc1ccc(OC)c(C2CC(=O)C3=C(C2)NC(=O)CC3c2ccc(OC)c(OC)c2)c1 (configuration not stated)	2.41	3.79
C#CC[n+]1ccn2c(C)ccc2c1C	5.58	1.69
Cc1cc(C)c(S(=O)(=O)N(C)CC(=O)Nc2cccc(C(F)(F)F)c2)c(C)c1	> 15	> 15
CCCCCOc1ccc(NC2=C(N3CCCC3)C(=O)c3ccccc3C2=O)cc1	> 15	1.92
O=C1C2CC=C(Cl)CC2C(=O)N1CCCCO (configuration not stated)	3.32	1.47
CCCOc1cc(S(=O)(=O)n2ccnc2)ccc1Cl	> 15	> 15
COc1ccc(N2C(=O)c3cccnc3C2Nc2ccc(C)cc2Cl)cc1 (configuration not stated)	4	3.84
CC(C)(C)c1ccc(C(=O)Nc2nc3ccccc3s2)cc1	> 15	> 15
COCCn1/c(=N/C(=O)c2nc3ccccc3s2)sc2cc(S(C)(=O)=O)ccc21	> 15	> 15
O=[N+]([O-])c1cccc(NC(=S)Nc2ccc(OC(F)F)c(Cl)c2)c1	6.66	4.46
CCCC(=O)NC(c1ccc(N(CC)CC)cc1)c1cc(Cl)c2cccnc2c1O (configuration not stated)	0.844	1.14

SMILES	EC50 (Plasmodium falciparum [1]) [µM]	EC50 (Plasmodium falciparum [2]) [µM]
CCCc1cc(O)nc(-n2nc(C)cc2NC(=O)COc2ccc(OC)cc2)n1	> 15	> 15
Cc1ccc([N+](=O)[O-])cc1NC(=O)c1cc2ccccc2cc1O	0.825	0.827
CCO/C(O)=C1\C(C)=NC2=C(C(=O)CC(c3ccc(OC)c(OC)c3)C2)C1c1ccc(SC)cc1 (configuration not stated)	3.2	3.18
Cc1cccc(NC(c2ccc(Br)cc2)c2ccc3cccnc3c2O)n1 (configuration not stated)	1.94	3.54
C[n+]1ccccc1/C=C1\Sc2ccccc2N1CCO	5.49	3.1
O=C(CC1N=C2c3ccccc3N=C(SCc3ccc(F)cc3)N2C1=O)NCc1ccco1 (configuration not stated)	8.19	5.69
CCOC(=O)c1ccc(NC(=O)c2cc([N+](=O)[O-])ccc2NC(=O)CNC2CCN(Cc3ccccc3)CC2)cc1	1.27	3.68
Clc1ccccc1Nc1nc(NCc2ccccc2)c2ccccc2n1	1.54	4.17
CC(=O)C1=C(C)NC(SCC(=O)c2cccc([N+](=O)[O-])c2)=C(C#N)C1c1ccc(Cl)cc1 (configuration not stated)	> 15	6.73
CCOc1ccc2nc(N(Cc3cccnc3)C(=O)c3cccs3)sc2c1	6.99	7
COc1cc(C(NC(=O)CCl)NC(=O)CCl)ccc1OCC(C)C	5.66	3.67
Cc1cc(N2CCN(C)CC2)nc2ccc(NC(=S)NCCCN3CCc4ccccc4C3)cc12	1.48	6.68
Oc1c2c(nc3cc(-c4ccc(Br)cc4)nn13)CCCC2	> 15	0.632
O=C(Nc1ccc(Cl)cc1)C1c2ccccc2C(=O)N(C2CCCC2)C1c1cccs1 (configuration not stated)	0.556	1.07
CCC1=Nc2cc(C(=O)NCc3ccco3)ccc2Sc2ccc(Cl)cc21	3.74	6.27
Oc1c(C(Nc2ccccn2)c2ccc(Cl)c(Cl)c2)ccc2cccnc12 (configuration not stated)	1.34	4.36
CCOc1ccc2nc(C)cc(Nc3cccc(OC)c3)c2c1	3.41	6.76
CCCC(=O)NC(c1ccccc1Cl)c1cc(Cl)c2cccnc2c1O (configuration not stated)	> 15	> 15
CCCOc1ccc(-c2nonc2NC(=O)c2cccc(OCC)c2)cc1OCCC	> 15	0.444
CCCC(=O)C1=C(c2cccc(OC)c2)N(C(=O)CCC)n2cnnc2S1	> 15	> 15
